Drawing on paper PMC9317481, “Design and Synthesis of New Hydantoin Acetanilide Derivatives as Anti-NSCLC Targeting EGFR^L858R/T790M Mutations” (Pharmaceuticals, 2022), this text covers IC50 and melting point for seven compounds.

The test system of the first series is H1975 cells. In words: MTT antiproliferative assay, H1975. The settings on record: Homo sapiens, NCI-H1975, read-out: IC50 (µM) H1975. (Tetrazolium assays rely on reduction of a dye to a coloured formazan, in cell work by metabolically active cells.)
Consider `CC1(c2ccccc2)NC(=O)N(CC(=O)Nc2ccc(F)c(F)c2F)C1=O` (stereo not shown) [5i, N-(2,3,4-trifluorophenyl)-2-(4-methyl-2,5-dioxo-4-phenylimidazolidin-1-yl)acetamide], for which the concentration for half-maximal inhibition (IC50) worked out at 14 ± 0.76 µM.

Turning to `COc1ccc(NC(=O)CN2C(=O)NC(C)(c3ccccc3)C2=O)c(C)c1` (stereo not shown) [5j, N-(4-methoxy-2-methylphenyl)-2-(4-methyl-2,5-dioxo-4-phenylimidazolidin-1-yl)acetamide], the IC50 turned out to be 30.9 ± 1.68 µM.

Consider `CC1(c2ccccc2)NC(=O)N(CC(=O)Nc2ccc(F)c(Cl)c2)C1=O` (stereo not shown) [5k, N-(3-chloro-4-fluorophenyl)-2-(4-methyl-2,5-dioxo-4-phenylimidazolidin-1-yl)acetamide], for which the IC50 is 5.84 ± 0.32 µM.

Turning to `CCOc1ccc(NC(=O)CN2C(=O)NC(C)(c3ccccc3)C2=O)cc1` (stereo not shown) [5l, N-(4-ethoxyphenyl)-2-(4-methyl-2,5-dioxo-4-phenylimidazolidin-1-yl)acetamide], the IC50 was determined as 43.8 ± 2.39 µM.

On to `COc1ccccc1NC(=O)CN1C(=O)NC(C)(c2ccccc2)C1=O` (stereo not shown) [5m, N-(2-methoxyphenyl)-2-(4-methyl-2,5-dioxo-4-phenylimidazolidin-1-yl)acetamide], for which the IC50 is 2.27 ± 0.12 µM.

In the case of `COc1cccc(NC(=O)CN2C(=O)NC(C)(c3ccccc3)C2=O)c1` (stereo not shown) [5n, N-(3-methoxyphenyl)-2-(4-methyl-2,5-dioxo-4-phenylimidazolidin-1-yl)acetamide], the IC50 stood at 18.8 ± 1.02 µM.

As for `C#Cc1cccc(Nc2ncnc3cc(OCCOC)c(OCCOC)cc23)c1` [Erlotinib, erlotinib, reference compound], the IC50 was found to be 9.7 ± 0.53 µM.

A further series relates to PC9 cells. In words: MTT antiproliferative assay, PC9. The settings on record: Homo sapiens, PC-9, read-out: IC50 (µM) PC9.
As to `CC1(c2ccccc2)NC(=O)N(CC(=O)Nc2ccc(F)c(F)c2F)C1=O` (stereo not shown) [5i, N-(2,3,4-trifluorophenyl)-2-(4-methyl-2,5-dioxo-4-phenylimidazolidin-1-yl)acetamide], the IC50 was 6.06 ± 0.35 µM.

Consider `COc1ccc(NC(=O)CN2C(=O)NC(C)(c3ccccc3)C2=O)c(C)c1` (stereo not shown) [5j, N-(4-methoxy-2-methylphenyl)-2-(4-methyl-2,5-dioxo-4-phenylimidazolidin-1-yl)acetamide], for which the IC50 was found to be 9.97 ± 1.08 µM.

Regarding `CC1(c2ccccc2)NC(=O)N(CC(=O)Nc2ccc(F)c(Cl)c2)C1=O` (stereo not shown) [5k, N-(3-chloro-4-fluorophenyl)-2-(4-methyl-2,5-dioxo-4-phenylimidazolidin-1-yl)acetamide], the IC50 came out at 3.25 ± 0.35 µM.

Turning to `CCOc1ccc(NC(=O)CN2C(=O)NC(C)(c3ccccc3)C2=O)cc1` (stereo not shown) [5l, N-(4-ethoxyphenyl)-2-(4-methyl-2,5-dioxo-4-phenylimidazolidin-1-yl)acetamide], the IC50 stood at 6.69 ± 0.73 µM.

`COc1ccccc1NC(=O)CN1C(=O)NC(C)(c2ccccc2)C1=O` (stereo not shown) [5m, N-(2-methoxyphenyl)-2-(4-methyl-2,5-dioxo-4-phenylimidazolidin-1-yl)acetamide]: the half-inhibitory concentration (IC50) came to 28.3 ± 3.08 µM.

With `COc1cccc(NC(=O)CN2C(=O)NC(C)(c3ccccc3)C2=O)c1` (stereo not shown) [5n, N-(3-methoxyphenyl)-2-(4-methyl-2,5-dioxo-4-phenylimidazolidin-1-yl)acetamide], the IC50 turned out to be 6.87 ± 0.75 µM.

For `C#Cc1cccc(Nc2ncnc3cc(OCCOC)c(OCCOC)cc23)c1` [Erlotinib, erlotinib, reference compound], the IC50 was 16.3 ± 0.84 µM.

For another series, the system named is Akt. In words: Akt enzyme assay (Phospho-Ser473 ELISA) in A549 cells. Type of series: cell-based, human. The settings on record: read-out: Enzymatic Inhibition, IC50, (nM) Akt.
Method: Akt expression level was assayed using the Phospho Sandwich Akt (Phospho-Ser473) ELISA Kit (Cat. # MBS9511022, MyBioSource, San Diego, CA, USA) containing the components necessary for the semi-quantitative determination of Akt concentrations within experimental cell lysate samples. The assay was performed according to company protocols: the lysates were diluted with assay diluent and 100 μL/well was dispensed, wrapped with parafilm, and incubated for 2 h. They were shaken with RT or overnight at 4 °C. The plate was washed 3 times with 1× Wash Buffer 300 μL/well with a vacuum-based plate washer. Then, the plate was stricken on absorbent paper to remove as much residual liquid as possible. The Detection Antibody was diluted to 1× and 100 μL/well was dispensed, wrapped with parafilm, and incubated on a shaker for 2 hrs at RT, and the washing step was repeated. Streptavidin-HRP was diluted to 1× and 100 μL/well was dispensed, wrapped with parafilm, and incubated on a shaker for 30 min at RT. Ready-to-use substrate was brought to RT and 100 μL/well was dispensed and the reaction was allowed to incubate on an orbital shaker for 20–30 min. The reaction was stopped with stop solution 100 μL/well. The wells turned from blue to yellow and were read at 450 nm.
Consider `C#Cc1cccc(Nc2ncnc3cc(OCCOC)c(OCCOC)cc23)c1` [Erlotinib, erlotinib, reference compound], for which the IC50 is 25.4 nM.

In the next series the test system is WI-38 normal cells. In words: MTT cytotoxicity on normal fibroblast WI-38 cells. The settings on record: Homo sapiens, WI-38, read-out: WI-38, IC50 (µM).
Method: The new prepared candidates 5a–5n were evaluated for their antitumor activities against four selected cell lines, the adenocarcinomic human alveolar basal epithelial cells NCI-A549, NCI-H1975, human pulmonary adenocarcinoma PC9, and the fibroblast-like fetal lung cells WI-38 (purchased from American Type Culture Collection (ATCC), United States of America), using an MTT assay [26], as described earlier [27].
As to `C#Cc1cccc(Nc2ncnc3cc(OCCOC)c(OCCOC)cc23)c1` [Erlotinib, erlotinib, reference compound], the IC50 is 18.6 ± 1.24 µM.

The subject of the next series is ERK. In words: ERK enzyme assay (ELISA) in A549 cells. The settings on record: read-out: Enzymatic Inhibition, IC50, (nM) ERK. Type of series: cell-based, human. A general note: ELISA stands for enzyme-linked immunosorbent assay.
Method: ERK ELISA Kit (Cat. # E4317-100, BioVision, Inc., Waltham, MA, USA) was used for the in vitro quantitative determination of Human ERK. Firstly, the plate was washed 2 times with Wash Solution before the standard, sample, and control wells were added. A total of 100 μL of each standard or sample was added into appropriate wells. […] The cover was removed and the plate content was discarded without washing or letting the wells completely dry. A total of 0.1 mL of Biotin-detection antibody work solution was added into the above wells. […] The solution was discarded and washed 3 times with Wash Solution. It was washed by filling each well with Wash Buffer (350 μL) using a multi-channel pipette or auto-washer. It was soaked for 1–2 min, and then all residual wash-liquid was removed from the wells by aspiration. After the last wash, any remaining wash buffer was removed by aspirating or decanting. The plate was clapped on absorbent filter papers or other absorbent materials. […] The solution was discarded and washed 5 times with wash solution as mentioned before. […] A total of 50 μL of Stop Solution was added to each well. The result was read at 450 nm within 20 min.
As to `C#Cc1cccc(Nc2ncnc3cc(OCCOC)c(OCCOC)cc23)c1` [Erlotinib, erlotinib, reference compound], the IC50 was found to be 17.5 ± 0.18 nM.

For the next series, the system named is A549, H1975, and PC9 cell lines. In words: MTT antiproliferative assay, average of the three NSCLC cell lines. The settings on record: Homo sapiens, read-out: IC50 (µM) Average.
With `CC1(c2ccccc2)NC(=O)N(CC(=O)Nc2ccc(F)c(F)c2F)C1=O` (stereo not shown) [5i, N-(2,3,4-trifluorophenyl)-2-(4-methyl-2,5-dioxo-4-phenylimidazolidin-1-yl)acetamide], the IC50 came out at 6.93 µM.

As for `COc1ccc(NC(=O)CN2C(=O)NC(C)(c3ccccc3)C2=O)c(C)c1` (stereo not shown) [5j, N-(4-methoxy-2-methylphenyl)-2-(4-methyl-2,5-dioxo-4-phenylimidazolidin-1-yl)acetamide], the IC50 was 15 µM.

As to `CC1(c2ccccc2)NC(=O)N(CC(=O)Nc2ccc(F)c(Cl)c2)C1=O` (stereo not shown) [5k, N-(3-chloro-4-fluorophenyl)-2-(4-methyl-2,5-dioxo-4-phenylimidazolidin-1-yl)acetamide], the IC50 turned out to be 25.9 µM.

Consider `CCOc1ccc(NC(=O)CN2C(=O)NC(C)(c3ccccc3)C2=O)cc1` (stereo not shown) [5l, N-(4-ethoxyphenyl)-2-(4-methyl-2,5-dioxo-4-phenylimidazolidin-1-yl)acetamide], for which the IC50 turned out to be 17.6 µM.

Take `COc1ccccc1NC(=O)CN1C(=O)NC(C)(c2ccccc2)C1=O` (stereo not shown) [5m, N-(2-methoxyphenyl)-2-(4-methyl-2,5-dioxo-4-phenylimidazolidin-1-yl)acetamide]: the IC50 stood at 14.3 µM.

As to `COc1cccc(NC(=O)CN2C(=O)NC(C)(c3ccccc3)C2=O)c1` (stereo not shown) [5n, N-(3-methoxyphenyl)-2-(4-methyl-2,5-dioxo-4-phenylimidazolidin-1-yl)acetamide], the IC50 is 8.7 µM.

Consider `C#Cc1cccc(Nc2ncnc3cc(OCCOC)c(OCCOC)cc23)c1` [Erlotinib, erlotinib, reference compound], for which the IC50 is 11.3 µM.

The subject of the next series is A549 cells. In words: MTT antiproliferative assay, A549. The settings on record: Homo sapiens, A549, read-out: IC50 (µM) A549.
Take `CC1(c2ccccc2)NC(=O)N(CC(=O)Nc2ccc(F)c(F)c2F)C1=O` (stereo not shown) [5i, N-(2,3,4-trifluorophenyl)-2-(4-methyl-2,5-dioxo-4-phenylimidazolidin-1-yl)acetamide]: the IC50 came out at 0.73 ± 0.05 µM.

As for `COc1ccc(NC(=O)CN2C(=O)NC(C)(c3ccccc3)C2=O)c(C)c1` (stereo not shown) [5j, N-(4-methoxy-2-methylphenyl)-2-(4-methyl-2,5-dioxo-4-phenylimidazolidin-1-yl)acetamide], the IC50 is 4.11 ± 0.26 µM.

Take `CC1(c2ccccc2)NC(=O)N(CC(=O)Nc2ccc(F)c(Cl)c2)C1=O` (stereo not shown) [5k, N-(3-chloro-4-fluorophenyl)-2-(4-methyl-2,5-dioxo-4-phenylimidazolidin-1-yl)acetamide]: the IC50 turned out to be 68.6 ± 4.32 µM.

For `CCOc1ccc(NC(=O)CN2C(=O)NC(C)(c3ccccc3)C2=O)cc1` (stereo not shown) [5l, N-(4-ethoxyphenyl)-2-(4-methyl-2,5-dioxo-4-phenylimidazolidin-1-yl)acetamide], the IC50 amounted to 2.37 ± 0.15 µM.

For `COc1ccccc1NC(=O)CN1C(=O)NC(C)(c2ccccc2)C1=O` (stereo not shown) [5m, N-(2-methoxyphenyl)-2-(4-methyl-2,5-dioxo-4-phenylimidazolidin-1-yl)acetamide], the IC50 turned out to be 12.3 ± 0.78 µM.

`COc1cccc(NC(=O)CN2C(=O)NC(C)(c3ccccc3)C2=O)c1` (stereo not shown) [5n, N-(3-methoxyphenyl)-2-(4-methyl-2,5-dioxo-4-phenylimidazolidin-1-yl)acetamide]: the IC50 came to 0.42 ± 0.03 µM.

With `C#Cc1cccc(Nc2ncnc3cc(OCCOC)c(OCCOC)cc23)c1` [Erlotinib, erlotinib, reference compound], the IC50 worked out at 7.81 ± 0.43 µM.

Test system in another series: not given
Experiment: not given
Conditions: not given
Consider `CC1(c2ccccc2)NC(=O)N(CC(=O)Nc2ccc(F)c(F)c2F)C1=O` (stereo not shown) [5i, N-(2,3,4-trifluorophenyl)-2-(4-methyl-2,5-dioxo-4-phenylimidazolidin-1-yl)acetamide], for which the melting point fell in the range of 205 to 210 °C.

The compound `COc1ccc(NC(=O)CN2C(=O)NC(C)(c3ccccc3)C2=O)c(C)c1` (stereo not shown) [5j, N-(4-methoxy-2-methylphenyl)-2-(4-methyl-2,5-dioxo-4-phenylimidazolidin-1-yl)acetamide] showed a melting point of 143 to 146 °C.

With `CC1(c2ccccc2)NC(=O)N(CC(=O)Nc2ccc(F)c(Cl)c2)C1=O` (stereo not shown) [5k, N-(3-chloro-4-fluorophenyl)-2-(4-methyl-2,5-dioxo-4-phenylimidazolidin-1-yl)acetamide], the melting point was in the range of 170 to 173 °C.

`CCOc1ccc(NC(=O)CN2C(=O)NC(C)(c3ccccc3)C2=O)cc1` (stereo not shown) [5l, N-(4-ethoxyphenyl)-2-(4-methyl-2,5-dioxo-4-phenylimidazolidin-1-yl)acetamide]: the melting point is 153 to 155 °C.

`COc1ccccc1NC(=O)CN1C(=O)NC(C)(c2ccccc2)C1=O` (stereo not shown) [5m, N-(2-methoxyphenyl)-2-(4-methyl-2,5-dioxo-4-phenylimidazolidin-1-yl)acetamide]: the melting point fell in the range of 85 to 90 °C.

As to `COc1cccc(NC(=O)CN2C(=O)NC(C)(c3ccccc3)C2=O)c1` (stereo not shown) [5n, N-(3-methoxyphenyl)-2-(4-methyl-2,5-dioxo-4-phenylimidazolidin-1-yl)acetamide], the melting point is 148 to 151 °C.

By IC50 is commonly meant the concentration that inhibits the measured activity by half. As a reminder, the melting point is the temperature of the solid-liquid transition.
